One assay relates to HCV pseudoparticles. Kind of assay: HCV pseudoparticle (HCVpp) entry assay in Huh7 hepatoma cells, luciferase readout. Type of assay: cell-based, hepatitis C virus. To be noted: for RLU units: HCVpp. The gist of the method: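 Huh7 cells were pre-treated with peptide for 1 h at 37 °C before exposure to HCV E1/E2-pseudotyped HIV luciferase particles made in 293T cells, followed by 72 h culture and luciferase readout. Peptides were tested at 10 points, 3-fold, from 100 ug/ml; particles lacking envelope served as non-specific entry control.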

Assay [1] relates to amphotropic murine leukemia virus. Nature of the assay: AMLV pseudotyped virus entry counter-screen, same infection protocol. It is filed as cell-based. Particulars: peptide library screen; cell entry inhibition vs uninhibited control. The procedure, abridged:
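Huh7 hepatoma cells pre-incubated with peptide 1 h at 37 °C, then infected with AMLV pseudotyped virus and cultured 72 h at 37 °C, 5% CO2 before luciferase read-out. Peptides screened at 100 ug/ml, then 10-point 3-fold titrations from 100 ug/ml.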

The next assay relates to HIVpp. Kind of assay: HIV pseudotyped virus (HIVpp) entry counter-screen. It is filed as cell-based. To be noted: 1st and 2nd trial. The method, then: Infection of hepatoma cell lines with HCV pseudotype particles and screen for inhibitory peptides. The hepatoma cells, Huh7, was seeded at 8000 cells in 90 ul medium in 96-well plate. In the case of the inhibitor screen, the inhibitor was incubated with cells for one hour at 37° C. and then 50 ul viral supernatant was added to the cells 24 hours after seeding. The viral stock was pre-tittered and diluted to yield approximately 10,000 to 20,000 RLU. The cells were incubated at 37° C. with 5% CO2 for additional 72 hours and were harvested for luciferase assay. Peptide stocks were prepared in 100% DMSO at 10 mg/ml and were first screened at 100 ug/ml and then a dose responsive curve was generated with 10 points 3-fold titration starting from 100 ug/ml.
The specificity of the peptides were counter-screened with AMLV and HIV pseudotyped viruses using the same infection protocol.
The data points for the dose response curve of peptide […] (SEQ ID NO: 77) are shown below in tables 5A (HCVpp) and 5B (HIVpp). The peptide of SEQ ID NO: 77 was first serial diluted by the factor of 3 in 100% DMSO from 100 ug/ml and then transferred to the assay plates at 100-fold dilution. The peptide was first incubated with cells and HCVpp (A) or HIVpp (B), respectively, for 30 minutes at […] in this experiment. Then, the medium containing the peptide was removed from the cells and virus with peptide was added to the cells. Cells were incubated for 72 hours and then were harvested for luciferase assay. Two separate trials were performed.
In general terms: Counterscreens check selectivity or assay interference.

“And” between values parts separate entries of the source, which are not always exact repeats. Equal entries are not always repeated.

Regarding “V-S-F-A-I-K-W-E-Y-V-L-L-L-F-L-L [SEQ ID NO: 77]”, the RLU units in the assay on HCV pseudoparticles (peptide conc. 0.091515 log ug/ml, 1st and 2nd trial) is 1044 RLU and 833 RLU; in the assay with HCV pseudoparticles (peptide conc. 0.568636 log ug/ml, 1st and 2nd trial) it was 544 RLU and 500 RLU; in the assay with HCV pseudoparticles (peptide conc. 2 log ug/ml, 1st and 2nd trial), 11 RLU and 10 RLU; in the assay with HCV pseudoparticles (peptide conc. not given, 1st trial) it was 1494 RLU; in the assay on HCV pseudoparticles (peptide conc. −0.38561 log ug/ml, 1st and 2nd trial), 1279 RLU and 1283 RLU; in the assay on HCV pseudoparticles (peptide conc. −0.86273 log ug/ml, 1st and 2nd trial), 1866 RLU and 1762 RLU. Moreover, the RLU units is 2564 RLU and 2703 RLU and 2998 RLU and 3512 RLU and 2090 RLU and 3359 RLU with HCV pseudoparticles (peptide conc. −1.33985 log ug/ml (three lines), 1st and 2nd trial); 674698 RLU and 651004 RLU in the assay with HIVpp (peptide conc. 0.091515 log ug/ml); 561454 RLU and 612198 RLU in the assay on HIVpp (peptide conc. 0.568636 log ug/ml); 740592 RLU and 744482 RLU with HIVpp (peptide conc. 1.045758 log ug/ml); 787025 RLU and 683636 RLU in the assay with HIVpp (peptide conc. 1.522879 log ug/ml); 435408 RLU and 543239 RLU in the assay on HIVpp (peptide conc. 2 log ug/ml). For the same substance, the RLU units in the assay with HIVpp (peptide conc. −0.38561 log ug/ml) was 732652 RLU and 734586 RLU; with HIVpp (peptide conc. −0.86273 log ug/ml), 676303 RLU and 639921 RLU; in the assay on HIVpp (peptide conc. −1.33985 log ug/ml) it was 815312 RLU and 754404 RLU. This substance returned an HCVpp % inh with HCV pseudoparticles (peptide library screen, first screened at 100 ug/ml, cell entry inhibition vs uninhibited control) of 96%. The substance also registered an AMLVpp % inh in assay [1] of 3%.

The values above are taken from patent US20100119483A1, “PEPTIDE VIRAL ENTRY INHIBITORS” (Schering Corporation, priority 2004, published 2010).
